# According to US20220281848A1, “PYRAZOLE-SUBSTITUTED PYRROLIDINONES AS HERBICIDES” (FMC Corporation, priority 2019, published 2022):
# System: plants
# Experiment: Test D pre-emergence, other plants of Tables D1 and D3
# Assay type: in vivo
# Conditions: for damage to plant (100=total damage to plant; 0=no damage to plant), SORVU: preemergent, 20 DAA; for damage to plant, ALOMY / damage to plant, AVEFA / damage to plant, BEAVA / damage to plant, BROTE / damage to plant, BRSNN / damage to plant, CHEAL / damage to plant, GALAP / damage to plant, HORVW / damage to plant, KCHSC / damage to plant, LOLPE / damage to plant, POAAN / damage to plant, POLCO / damage to plant, SINAR / damage to plant, STEME / damage to plant, VERPE: pre-emergence, 100=total damage, 0=no damage
# Procedure: A formulation containing 50 g/L of the test chemical was prepared by dissolving the active ingredient in a mixture of organic solvents and emulsifier, details of which are provided in the table. This formulation was then mixed with a small, variable amount of acetone to aid dissolution, before addition of a 0.2% v/v aqueous solution of an adjuvant, as the aqueous diluent, to form an aqueous spray solution which contains a predetermined concentration of the active ingredient.
# This aqueous spray solution was then sprayed onto plants including maize and wheat that had been seed treated with a herbicide safener, after one day's cultivation (for pre-emergence) or after about 12 days' cultivation (for post-emergence). The plants were grown from seeds sown in standard soil, placed in a glasshouse under controlled conditions (at 24/18° C. or 20/16° C., day/night; 16 h light; 65% humidity). After spray application the plants were then grown in a glasshouse under the same conditions and watered twice daily. After 15 d for post-emergence and 20 DAA for pre-emergence the test was evaluated (100=total damage to plant; 0=no damage to plant).
structure (smiles),measurement,setting,value
CCn1nc([C@@H]2CN(C)C(=O)[C@H]2C(=O)Nc2cccc(F)c2F)c2cccc(F)c21 [Compound 14],"damage to plant (100=total damage to plant; 0=no damage to plant), SORVU",rate 130,0
same,"damage to plant (100=total damage to plant; 0=no damage to plant), SORVU",rate 250,0
same,"damage to plant (100=total damage to plant; 0=no damage to plant), SORVU",rate 500,30
same,"damage to plant, ALOMY","rate 15, 20 DAA",0
same,"damage to plant, AVEFA","rate 15, 20 DAA",0
same,"damage to plant, BEAVA","rate 15, 20 DAA",0
same,"damage to plant, BROTE","rate 15, 20 DAA",0
same,"damage to plant, BRSNN","rate 15, 20 DAA",0
same,"damage to plant, CHEAL","rate 15, 20 DAA",0
same,"damage to plant, GALAP","rate 15, 20 DAA",0
same,"damage to plant, HORVW","rate 15, 20 DAA",0
same,"damage to plant, KCHSC","rate 15, 20 DAA",0
same,"damage to plant, LOLPE","rate 15, 20 DAA",0
same,"damage to plant, POAAN","rate 15, 20 DAA",0
same,"damage to plant, POLCO","rate 15, 20 DAA",0
same,"damage to plant, SINAR","rate 15, 20 DAA",0
same,"damage to plant, STEME","rate 15, 20 DAA",0
same,"damage to plant, VERPE","rate 15, 20 DAA",0
same,"damage to plant, ALOMY","rate 30, 20 DAA",0
same,"damage to plant, AVEFA","rate 30, 20 DAA",0
same,"damage to plant, BEAVA","rate 30, 20 DAA",0
same,"damage to plant, BROTE","rate 30, 20 DAA",0
same,"damage to plant, BRSNN","rate 30, 20 DAA",0
same,"damage to plant, CHEAL","rate 30, 20 DAA",0
same,"damage to plant, GALAP","rate 30, 20 DAA",0
same,"damage to plant, HORVW","rate 30, 20 DAA",0
same,"damage to plant, KCHSC","rate 30, 20 DAA",0
same,"damage to plant, LOLPE","rate 30, 20 DAA",0
same,"damage to plant, POAAN","rate 30, 20 DAA",0
same,"damage to plant, POLCO","rate 30, 20 DAA",0
same,"damage to plant, SINAR","rate 30, 20 DAA",0
same,"damage to plant, STEME","rate 30, 20 DAA",0
same,"damage to plant, VERPE","rate 30, 20 DAA",0
same,"damage to plant, ALOMY","rate 60, 20 DAA",0
same,"damage to plant, AVEFA","rate 60, 20 DAA",0
same,"damage to plant, BEAVA","rate 60, 20 DAA",0
same,"damage to plant, BROTE","rate 60, 20 DAA",0
same,"damage to plant, BRSNN","rate 60, 20 DAA",0
same,"damage to plant, CHEAL","rate 60, 20 DAA",0
same,"damage to plant, GALAP","rate 60, 20 DAA",0
same,"damage to plant, HORVW","rate 60, 20 DAA",0
same,"damage to plant, KCHSC","rate 60, 20 DAA",0
same,"damage to plant, LOLPE","rate 60, 20 DAA",30
same,"damage to plant, POAAN","rate 60, 20 DAA",0
same,"damage to plant, POLCO","rate 60, 20 DAA",10
same,"damage to plant, SINAR","rate 60, 20 DAA",0
same,"damage to plant, STEME","rate 60, 20 DAA",0
same,"damage to plant, VERPE","rate 60, 20 DAA",0
same,"damage to plant, ALOMY","rate 130, 20 DAA",0
same,"damage to plant, AVEFA","rate 130, 20 DAA",10
same,"damage to plant, BEAVA","rate 130, 20 DAA",0
same,"damage to plant, BROTE","rate 130, 20 DAA",0
same,"damage to plant, BRSNN","rate 130, 20 DAA",0
same,"damage to plant, CHEAL","rate 130, 20 DAA",0
same,"damage to plant, GALAP","rate 130, 20 DAA",0
same,"damage to plant, HORVW","rate 130, 20 DAA",10
same,"damage to plant, KCHSC","rate 130, 20 DAA",0
same,"damage to plant, LOLPE","rate 130, 20 DAA",40
same,"damage to plant, POAAN","rate 130, 20 DAA",20
same,"damage to plant, POLCO","rate 130, 20 DAA",20
same,"damage to plant, SINAR","rate 130, 20 DAA",0
same,"damage to plant, STEME","rate 130, 20 DAA",0
same,"damage to plant, VERPE","rate 130, 20 DAA",0
same,"damage to plant, ALOMY","rate 250, 20 DAA",10
same,"damage to plant, AVEFA","rate 250, 20 DAA",30
same,"damage to plant, BEAVA","rate 250, 20 DAA",0
same,"damage to plant, BROTE","rate 250, 20 DAA",10
same,"damage to plant, BRSNN","rate 250, 20 DAA",0
same,"damage to plant, CHEAL","rate 250, 20 DAA",0
same,"damage to plant, GALAP","rate 250, 20 DAA",0
same,"damage to plant, HORVW","rate 250, 20 DAA",60
same,"damage to plant, KCHSC","rate 250, 20 DAA",0
same,"damage to plant, LOLPE","rate 250, 20 DAA",50
same,"damage to plant, POAAN","rate 250, 20 DAA",80
same,"damage to plant, POLCO","rate 250, 20 DAA",50
same,"damage to plant, SINAR","rate 250, 20 DAA",0
same,"damage to plant, STEME","rate 250, 20 DAA",10
same,"damage to plant, VERPE","rate 250, 20 DAA",0
same,"damage to plant, ALOMY","rate 500, 20 DAA",70
same,"damage to plant, AVEFA","rate 500, 20 DAA",60
same,"damage to plant, BEAVA","rate 500, 20 DAA",10
same,"damage to plant, BROTE","rate 500, 20 DAA",50
same,"damage to plant, BRSNN","rate 500, 20 DAA",10
same,"damage to plant, CHEAL","rate 500, 20 DAA",50
same,"damage to plant, GALAP","rate 500, 20 DAA",0
same,"damage to plant, HORVW","rate 500, 20 DAA",90
same,"damage to plant, KCHSC","rate 500, 20 DAA",0
same,"damage to plant, LOLPE","rate 500, 20 DAA",80
same,"damage to plant, POAAN","rate 500, 20 DAA",80
same,"damage to plant, POLCO","rate 500, 20 DAA",80
same,"damage to plant, SINAR","rate 500, 20 DAA",0
same,"damage to plant, STEME","rate 500, 20 DAA",60
same,"damage to plant, VERPE","rate 500, 20 DAA",20
